# Measurements as given in patent publication US20260216103A1, “USE OF LONG-ACTING ß2AR AGONIST IN PREPARATION OF DRUGS FOR TREATING CANCERS” (HONG KONG SXMETEROL PHARMACEUTICAL CO., LIMITED, priority 2023, published 2026).
# Columns and labels:
# [1] = system: brain cancer cells SF126; experiment: tumor sphere formation assay of brain cancer cells; type: cell-based; conditions: 1 μM, 3 μM, or 10 μM, 7 d; FIG. 25
# Description: (§1) As a gold standard for detecting the self-renewal capability of cancer stem cells in vitro, a tumor sphere formation assay may detect individual cancer stem cell that continuously self-renew in a conditioned medium and form tumor spheres consisting of multiple cells. This in vitro experiment is often used to test the responsiveness of clinical patients to anticancer drugs, and guide in vivo medication of the clinical patients.
# [2] = system: melanoma cells B16F10, A375, A2058; experiment: tumor sphere formation assay of melanoma cells; type: cell-based; conditions: 1 μM, 3 μM, or 10 μM, 7 d; FIG. 17
# Description: as §1
# [3] = system: cancer stem cells of 17 cancers; experiment: tumor sphere formation assays of cancer cells, summary over 17 cancers; type: cell-based; conditions: summary of Examples 1-9; agonist used alone
# Description: as §1
# Cancer stem cells have self-renewal capability, which determines the initiation and progression of cancers. As a gold standard for detecting the self-renewal capability of cancer stem cells in vitro, a tumor sphere formation assay may detect individual cancer stem cells that continuously self-renew in a conditioned medium and form tumor spheres consisting of multiple cells.
# [4] = system: esophageal cancer cells KYSE-150; experiment: tumor sphere formation assay of esophageal cancer cells; type: cell-based; conditions: 10 μM, 7 d; FIG. 15; P<0.05
# Description: as §1
# According to culture conditions in Table 5, esophageal cancer cells KYSE-150 were subjected to a tumor sphere formation assay, and treated with salmeterol xinafoate (SX) at a concentration of 10 μM.
# [5] = system: hematoma cells SU-DHL-8; experiment: tumor sphere formation assay of hematoma cells; type: cell-based; conditions: 1 μM, 3 μM, or 10 μM, 7 d; FIG. 18
# Description: as §1
# [6] = system: a variety of cancers; experiment: orthotopic or subcutaneous tumorigenesis experiments in mice, summary; conditions: summary of in vivo tumorigenesis experiments; drug concentration of 10 μM
# Method: (§2) Experimental method and steps: Cancer cells were treated with salmeterol xinafoate (SX) in vitro for 3-7 d, and a subcutaneous or orthotopic tumorigenesis experiment was conducted on mice.
# [7] = system: breast cancer cells MDA-MB-231, 4T1, 168FARN, 67NR, 4TO7; experiment: tumor sphere formation assay of breast cancer cells; type: cell-based; conditions: 1 μM, 3 μM, or 10 μM, 7 d; FIG. 11
# Description: as §1
# Experimental results in FIG. 11 show the number of tumor spheres from at least 3 independent experiments and representative tumor sphere photos.
# [8] = system: B16F10 melanoma cells; experiment: tumorigenesis experiment with SX-pretreated melanoma cells; type: in vivo, mice; conditions: cells treated with 10 μM SX for 3 d
# Method: as §2
# B16F10 melanoma cells were treated with 10 μM salmeterol xinafoate (SX) for 3 d, and cells (1×10^6/mouse) were subcutaneously injected on both sides of the back of mice in a control group and an SX treated group (4 mice/group) to conduct a tumorigenesis experiment. Cancers formed subcutaneously at all 8 injection sites of 4 mice in the control group, and cancers formed subcutaneously also at all 8 injection sites of 4 mice in the SX treated group.
# Experimental results in FIG. 10 show cancer growth curves and representative cancer photos.
# [9] = system: osteosarcoma cells U2OS; experiment: tumor sphere formation assay of osteosarcoma cells; type: cell-based; conditions: 1 μM, 3 μM, or 10 μM, 7 d; FIG. 26; P<0.01
# Description: as §1
# [10] = system: head and neck cancer cells CAL-27; experiment: tumor sphere formation assay of head and neck cancer cells; type: cell-based; conditions: 1 μM, 3 μM, or 10 μM, 7 d; FIG. 14
# Description: as §1
# [11] = system: lung cancer cells LLC, H1299, H460, H446; experiment: tumor sphere formation assay of lung cancer cells; type: cell-based; conditions: 1 μM, 3 μM, or 10 μM, 7 d; FIG. 13
# Description: as §1
# [12] = system: gastric cancer cells SNU-1; experiment: tumor sphere formation assay of gastric cancer cells; type: cell-based; conditions: 10 μM, 7 d; FIG. 23; P<0.001
# Description: as §1
# According to culture conditions in Table 13, gastric cancer cells SNU-1 were subjected to a tumor sphere formation assay, and treated with salmeterol xinafoate (SX) at a concentration of 10 μM.
# [13] = system: MDA-MB-231 breast cancer cells; experiment: orthotopic tumorigenesis experiment with SX-pretreated breast cancer cells; type: in vivo, mice; conditions: cells treated with 10 μM SX for 7 d
# Method: as §2
# MDA-MB-231 breast cancer cells were treated with 10 μM salmeterol xinafoate (SX) for 7 d, and cells (1×10^4/mouse) were injected into the orthotopic mammary fat pads on both sides of the body of mice in a control group and an SX treated group (5 mice/group) to conduct a tumorigenesis experiment. 8 orthotopic cancers formed at 10 injection sites in the orthotopic mammary fat pads of 5 mice in the control group, and only 6 orthotopic cancers formed at 10 injection sites in the orthotopic mammary fat pads of 5 mice in the SX treated group.
# Experimental results in FIG. 4 show cancer growth curves and representative cancer photos.
# [14] = system: bladder cancer cells RT4; experiment: tumor sphere formation assay of bladder cancer cells; type: cell-based; conditions: 1 μM, 3 μM, or 10 μM, 7 d; FIG. 16
# Description: as §1
# [15] = system: prostate cancer cells PC-3, DU145, RM-1; experiment: tumor sphere formation assay of prostate cancer cells; type: cell-based; conditions: 1 μM, 3 μM, or 10 μM, 7 d; FIG. 19
# Description: as §1
# [16] = system: LLC lung cancer cells; experiment: subcutaneous tumorigenesis experiment with SX-pretreated lung cancer cells (LLC); type: in vivo, mice; conditions: cells treated with 10 μM SX for 7 d
# Method: as §2
# In FIG. 6B, LLC lung cancer cells were treated with 10 μM salmeterol xinafoate (SX) for 7 d, and cells (1×10^5/mouse) were subcutaneously injected on both sides of the back of mice in a control group (8 mice) and an SX treated group (5 mice) to conduct a tumorigenesis experiment.
# Experimental results in FIG. 6 show cancer growth curves and representative cancer photos.
# [17] = system: liver cancer cells Hep G2; experiment: tumor sphere formation assay of liver cancer cells; type: cell-based; conditions: 1 μM, 3 μM, or 10 μM, 7 d; FIG. 20
# Description: as §1
# [18] = system: KYSE-150 esophageal cancer cells; experiment: subcutaneous tumorigenesis experiment with SX-pretreated esophageal cancer cells; type: in vivo, mice; conditions: cells treated with 10 μM SX for 3 d, 1×10^6/mouse; FIG. 8; P<0.0001 vs control
# Method: as §2
# KYSE-150 esophageal cancer cells were treated with 10 μM salmeterol xinafoate (SX) for 3 d, and cells (1×10^6/mouse) were subcutaneously injected on both sides of the back of mice in a control group and an SX treated group (3 mice/group) to conduct a tumorigenesis experiment.
# Experimental results in FIG. 8 show cancer growth curves.
structure (smiles),measurement,setting,value
OCc1cc(C(O)CNCCCCCCOCCCCc2ccccc2)ccc1O (stereo not drawn) [salmeterol xinafoate],number of tumor spheres (self-renewal capability of cancer stem cells),[1],inhibited the self-renewal capability of the brain cancer stem cells in a concentration dependent manner
same,number of tumor spheres (self-renewal capability of cancer stem cells),[2],inhibited the self-renewal capability of the melanoma stem cells in a concentration dependent manner
same,self-renewal capability of cancer stem cells,[3],can significantly inhibit the self-renewal capability of cancer stem cells of 17 cancers
same,number of tumor spheres (self-renewal capability of cancer stem cells),[4],inhibited the self-renewal capability of the esophageal cancer stem cells
same,number of tumor spheres (self-renewal capability of cancer stem cells),[5],inhibited the self-renewal capability of the hematoma stem cells in a concentration dependent manner
same,cancer initiation and cancer growth,[6],not only inhibiting cancer initiation but also significantly inhibiting cancer growth
same,number of tumor spheres (self-renewal capability of cancer stem cells),[7],inhibited the self-renewal capability of the breast cancer stem cells in a concentration dependent manner
same,cancers formed subcutaneously at injection sites,"[8]; 1×10^6/mouse, 8 injection sites of 4 mice, control group all 8 sites",8
same,cancer growth curves (initiation and progression),"[8]; FIG. 10, P<0.0001 vs control",inhibits the initiation and progression of orthotopic melanoma
same,number of tumor spheres (self-renewal capability of cancer stem cells),[9],inhibited the self-renewal capability of the osteosarcoma cancer stem cells
same,number of tumor spheres (self-renewal capability of cancer stem cells),[10],inhibited the self-renewal capability of the head and neck cancer stem cells
same,number of tumor spheres (self-renewal capability of cancer stem cells),[11],inhibited the self-renewal capability of the lung cancer stem cells in a concentration dependent manner
same,number of tumor spheres (self-renewal capability of cancer stem cells),[12],inhibited the self-renewal capability of the gastric cancer stem cells
same,orthotopic cancers formed at injection sites,"[13]; 1×10^4/mouse into orthotopic mammary fat pads, 10 injection sites of 5 mice, control group 8",6
same,cancer growth curves (initiation and progression),"[13]; FIG. 4, P<0.0001 vs control",inhibits the initiation and progression of orthotopic breast cancer
same,number of tumor spheres (self-renewal capability of cancer stem cells),[14],inhibited the self-renewal capability of the bladder cancer stem cells in a concentration dependent manner
same,number of tumor spheres (self-renewal capability of cancer stem cells),[15],inhibited the self-renewal capability of the prostate cancer stem cells in a concentration dependent manner
same,cancers formed subcutaneously at injection sites,"[16]; 1×10^5/mouse, 10 injection sites of 5 mice, control group all 16 sites",no cancers formed
same,cancer growth curves (initiation and progression),"[16]; FIG. 6B, P<0.0001 vs control",inhibits the initiation and progression of subcutaneous lung cancer
same,number of tumor spheres (self-renewal capability of cancer stem cells),[17],inhibited the self-renewal capability of the liver cancer stem cells in a concentration dependent manner
same,cancer growth curves (initiation and progression),[18],inhibits the initiation and progression of subcutaneous esophageal cancer
